Series [1] addresses Epidermal growth factor receptor and ErbB2 (HER1 and HER2) (Homo sapiens) (UniProt P04626+P00533). Briefly: Selectivity for EGF receptor and c-erbB-2. In kind it is protein assay.
For series [2], the target named is Receptor tyrosine-protein kinase erbB-2 (Rattus norvegicus, UniProt P06494). As to the kind of experiment: Inhibition of rat Receptor protein-tyrosine kinase erbB2.
In series [3] the target is Dual specificity mitogen-activated protein kinase kinase; MEK1/2 (Homo sapiens, UniProt P36507+Q02750). Briefly: Inhibition of MAPK kinase (MEK). Type of series: protein assay.
Series [4] addresses Cyclin-dependent kinase 2 (Homo sapiens, UniProt P24941). As to the kind of experiment: Inhibition of Cyclin-dependent kinase 2.
The target in series [5] is RAF proto-oncogene serine/threonine-protein kinase (Homo sapiens, UniProt P04049). As to the kind of experiment: Inhibition of Raf kinase.
Series [6] in a line: Bioavailability in dog. In kind it is ADME, organism-based, Canis lupus familiaris. To be noted: in vivo.
The test system of another series is HB4a. As to the kind of experiment: Inhibition of RAS overexpressing HB4a.R4.2 cell proliferation. To be noted: Homo sapiens. Type of series: functional, cell-based.
Series [7] in a line: Bioavailability was measured in rat. In kind it is ADME, organism-based. To be noted: in vivo.
Series [8] in a line: Pharmacokinetic property (Plasma clearance) was measured in mouse. In kind it is ADME, organism-based.
Series [9] is described as follows: Pharmacokinetic property (Plasma clearance) was measured in rat. Type of series: ADME, organism-based.
Series [10] can be described thus: Half-life was measured in mouse. In kind it is ADME, organism-based. As to conditions: in vivo.
The nature of series [11]: Half-life was measured in dog. In kind it is ADME, organism-based, Canis lupus familiaris. To be noted: in vivo.
Series [12] is described as follows: Pharmacokinetic property (Plasma clearance) was measured in dog. In kind it is ADME, organism-based, Canis lupus familiaris.
A further series concerns MRC5. As to the kind of experiment: Inhibition of MRC5 cell proliferation. In kind it is functional, cell-based. To be noted: Homo sapiens.
The target of series [13] is Proto-oncogene tyrosine-protein kinase Src (Homo sapiens, UniProt P12931). Briefly: Inhibition of Src kinase.
A short description of series [14]: Half-life was measured in rat. In kind it is ADME, organism-based. To be noted: in vivo.
The target in series [15] is Cyclin-dependent kinase 1 (Homo sapiens, UniProt P06493). Briefly: Inhibition of Cyclin-dependent kinase 1.
Series [16] in a line: Bioavailability was measured in mouse. Type of series: ADME, organism-based. As to conditions: in vivo.

Chain of Receptor tyrosine-protein kinase erbB-2 (P06494 whole entry): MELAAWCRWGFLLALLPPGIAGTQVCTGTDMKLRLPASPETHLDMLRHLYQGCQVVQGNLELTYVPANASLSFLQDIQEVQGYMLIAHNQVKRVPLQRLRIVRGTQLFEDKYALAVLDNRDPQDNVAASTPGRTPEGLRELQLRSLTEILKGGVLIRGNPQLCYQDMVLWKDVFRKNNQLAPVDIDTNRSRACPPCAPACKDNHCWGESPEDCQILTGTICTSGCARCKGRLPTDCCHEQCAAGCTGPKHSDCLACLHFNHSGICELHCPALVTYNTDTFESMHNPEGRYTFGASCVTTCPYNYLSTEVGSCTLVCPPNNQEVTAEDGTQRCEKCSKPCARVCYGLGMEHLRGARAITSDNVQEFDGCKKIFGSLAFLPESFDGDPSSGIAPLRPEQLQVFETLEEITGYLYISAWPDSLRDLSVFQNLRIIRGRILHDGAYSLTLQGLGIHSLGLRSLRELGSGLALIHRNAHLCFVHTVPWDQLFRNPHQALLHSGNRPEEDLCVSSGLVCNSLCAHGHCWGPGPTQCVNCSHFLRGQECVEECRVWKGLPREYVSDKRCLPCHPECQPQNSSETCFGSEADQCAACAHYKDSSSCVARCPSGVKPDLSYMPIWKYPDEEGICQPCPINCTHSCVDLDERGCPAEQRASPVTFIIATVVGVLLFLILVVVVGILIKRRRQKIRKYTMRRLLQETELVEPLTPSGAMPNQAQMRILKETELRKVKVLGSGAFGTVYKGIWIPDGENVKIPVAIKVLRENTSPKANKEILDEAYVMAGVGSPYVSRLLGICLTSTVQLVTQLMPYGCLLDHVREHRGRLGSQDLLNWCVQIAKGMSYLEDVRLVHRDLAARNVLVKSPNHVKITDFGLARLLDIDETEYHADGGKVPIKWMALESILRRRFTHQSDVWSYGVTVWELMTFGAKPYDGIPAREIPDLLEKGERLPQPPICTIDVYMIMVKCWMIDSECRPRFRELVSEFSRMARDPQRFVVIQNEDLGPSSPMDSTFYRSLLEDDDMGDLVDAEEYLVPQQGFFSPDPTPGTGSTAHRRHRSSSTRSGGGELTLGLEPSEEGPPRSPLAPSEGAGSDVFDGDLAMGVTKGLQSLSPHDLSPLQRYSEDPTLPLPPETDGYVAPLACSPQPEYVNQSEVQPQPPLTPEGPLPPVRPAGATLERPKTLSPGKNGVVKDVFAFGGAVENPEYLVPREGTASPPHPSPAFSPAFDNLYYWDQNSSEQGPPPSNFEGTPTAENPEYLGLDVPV
Chain of Proto-oncogene tyrosine-protein kinase Src (P12931 2-536 limits assumed): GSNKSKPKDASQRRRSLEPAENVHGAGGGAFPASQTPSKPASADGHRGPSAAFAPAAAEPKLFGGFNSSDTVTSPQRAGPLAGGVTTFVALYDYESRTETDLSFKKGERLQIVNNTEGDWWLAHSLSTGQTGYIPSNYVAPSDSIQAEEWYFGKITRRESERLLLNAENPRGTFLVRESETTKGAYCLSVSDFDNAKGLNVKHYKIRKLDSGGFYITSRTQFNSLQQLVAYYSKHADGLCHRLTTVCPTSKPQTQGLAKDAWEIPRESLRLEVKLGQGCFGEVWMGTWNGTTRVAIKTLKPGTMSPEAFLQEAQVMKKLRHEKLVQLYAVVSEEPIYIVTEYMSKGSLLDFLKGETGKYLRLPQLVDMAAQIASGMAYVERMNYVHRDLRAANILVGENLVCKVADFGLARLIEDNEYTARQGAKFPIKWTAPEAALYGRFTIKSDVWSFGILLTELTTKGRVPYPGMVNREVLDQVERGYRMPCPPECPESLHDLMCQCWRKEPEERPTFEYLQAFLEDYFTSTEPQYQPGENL
Chain of RAF proto-oncogene serine/threonine-protein kinase (P04049 whole entry): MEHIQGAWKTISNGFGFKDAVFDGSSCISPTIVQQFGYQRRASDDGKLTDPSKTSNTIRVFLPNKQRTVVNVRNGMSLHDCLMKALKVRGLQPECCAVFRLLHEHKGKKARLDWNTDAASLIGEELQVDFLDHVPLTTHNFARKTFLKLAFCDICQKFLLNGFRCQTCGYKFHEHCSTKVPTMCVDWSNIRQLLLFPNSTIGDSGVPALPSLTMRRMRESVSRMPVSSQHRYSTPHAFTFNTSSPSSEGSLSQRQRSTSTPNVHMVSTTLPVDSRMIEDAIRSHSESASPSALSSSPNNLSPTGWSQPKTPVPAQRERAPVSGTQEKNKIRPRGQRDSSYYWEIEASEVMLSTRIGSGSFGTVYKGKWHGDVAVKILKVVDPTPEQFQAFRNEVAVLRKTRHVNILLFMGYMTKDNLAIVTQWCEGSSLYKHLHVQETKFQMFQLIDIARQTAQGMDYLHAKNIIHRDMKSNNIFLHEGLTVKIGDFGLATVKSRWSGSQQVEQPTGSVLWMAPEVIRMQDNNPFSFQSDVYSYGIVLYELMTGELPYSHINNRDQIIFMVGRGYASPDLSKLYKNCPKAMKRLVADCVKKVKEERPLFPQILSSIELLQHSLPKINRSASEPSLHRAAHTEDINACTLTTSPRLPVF
Chain of Cyclin-dependent kinase 1 (P06493 whole entry): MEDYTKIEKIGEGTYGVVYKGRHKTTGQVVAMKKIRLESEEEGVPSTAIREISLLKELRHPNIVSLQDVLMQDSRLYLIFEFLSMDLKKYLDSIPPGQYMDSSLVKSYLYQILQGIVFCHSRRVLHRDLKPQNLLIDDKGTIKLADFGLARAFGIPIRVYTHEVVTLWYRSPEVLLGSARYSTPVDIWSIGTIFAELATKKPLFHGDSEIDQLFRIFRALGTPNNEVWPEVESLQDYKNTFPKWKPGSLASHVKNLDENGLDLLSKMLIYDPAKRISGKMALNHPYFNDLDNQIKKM

In series [1], `COc1cc2ncnc(Nc3ccc4nn(Cc5ccccc5)cc4c3)c2cc1OC` yielded a Selectivity of 8.9. Also, it took 290 nM to reach half-maximal inhibition in series [2] (IC50).
For `c1ccc(Cn2cnc3cc(Nc4ncnc5ccccc45)ccc32)cc1` the same measures were 39 and 6600 nM.
With `CN(C)c1cc2c(Nc3ccc4c(cnn4Cc4ccccc4)c3)ncnc2cn1` [GW282974X], the IC50 in [3] is 9700 nM; in series [4], over 8000 nM; in series [5], 49000 nM; with HB4a it was 30000 nM; in the series with MRC5, over 50000 nM; in series [13], over 50000 nM. Also, the concentration for half-maximal inhibition (IC50) in series [2] is 18 nM; in [15], over 8000 nM. The bioavailability is 82% in series [6], 24% in series [7] and over 23% in [16]. For the same molecule, the clearance is over 27 mL/min/kg in series [8], 19 mL/min/kg in series [9] and 34 mL/min/kg in series [12]. Besides, the half-life in series [10] is 20 min; in [11], 44 min; in series [14], 18 min.
For the molecule `COc1cc2ncnc(Nc3ccc4c(cnn4Cc4ccccc4)c3)c2cc1OC`, the Selectivity in series [1] was over 5.6. In addition, the 50% inhibitory concentration (IC50) in series [2] came out at 1 nM.
In the case of `c1ccc(Cn2ccc3cc(Nc4ncnc5ccccc45)ccc32)cc1`, the IC50 in series [2] was 90 nM.
Take `COc1cc2ncnc(Nc3ccc4c(ccn4Cc4ccccc4)c3)c2cc1OC`: in series [1], the Selectivity came out at 12.5. The molecule further had a concentration for half-maximal inhibition (IC50) in series [2] of 49 nM.
The like results for `c1ccc(Cc2nc3ccc(Nc4ncnc5ccccc45)cc3[nH]2)cc1` were, in that order, 36 and 560 nM.
Consider `c1ccc(Cn2ncc3cc(Nc4ncnc5ccccc45)ccc32)cc1`, for which, in series [2], it took 10 nM to reach half-maximal inhibition (IC50).
`c1ccc(Cn2cnc3ccc(Nc4ncnc5ccccc45)cc32)cc1` showed a Selectivity in series [1] of 27. In series [2], the half-inhibitory concentration (IC50) turned out to be 4400 nM.
The like results for `Nc1cc2c(Nc3ccc4c(cnn4Cc4ccccc4)c3)ncnc2cn1` were, in that order, over 5.6 and 27 nM.
In series [2], `Nc1cc2c(Nc3ccc4c(ccn4Cc4ccccc4)c3)ncnc2cn1` gave a half-inhibitory concentration (IC50) of 26 nM.
In the case of `COc1cc2ncnc(Nc3ccc4nc(Cc5ccccc5)[nH]c4c3)c2cc1OC`, in series [1], the Selectivity turned out to be 19. In addition, in [2], half-maximal inhibition (IC50) required 10 nM.
For `Nc1cc2c(Nc3ccc4[nH]c(Cc5ccccc5)nc4c3)ncnc2cn1` the same measures were 18.5 and 49 nM.

As usually defined, the IC50 is the concentration that inhibits the measured activity by half. As usually defined, the bioavailability is dose-corrected exposure relative to a reference, in per cent. The low end stands for poor availability, the high end for good availability. As usually defined, the clearance is the volume of plasma or blood freed of the substance per unit of time. A higher clearance goes with efficient removal. As a reminder, the half-life is how long it takes for the measured level to halve. A high value points to slow loss.
